The nature of data set [1]: Half-life for disappearance of compound measured at 37 degree C and pH 7.4 in rat liver microsomal preparations. The note with it: liver microsomes. In kind it is ADME.
The species named for a further data set is Rattus norvegicus. Nature of the data set: NADPH-dependent metabolic rate was measured in rat liver microsomal preparations. In kind it is functional.

The text below walks through data of ChEMBL document CHEMBL1121648, “Metabolism of 1,3-bis(2-chloroethyl)-1-nitrosourea by rat hepatic microsomes” (J Med Chem, 1981).

What is called half-life is the time needed for the level to fall by half in the phase considered. For the compound `O=NN(CCCl)C(=O)NCCCl` [CARMUSTINE], the half-life in data set [1] was found to be 1.5 h. Moreover, the Rate (nM (mg of protein)-1) in the data set listed under Rattus norvegicus worked out at 56. The compound `O=C(NCCCl)NCCCl` displayed a Rate (nM (mg of protein)-1) in the data set listed under Rattus norvegicus of 54.
